The nature of series [1]: Lipophilicity, logP of the compound. It counts as physicochemical. To be noted: octanol/water.
The test system of a further series is MCF7. Nature of the series: Antitumor activity against human MCF7 cells assessed as inhibition of cell viability by MTT assay. It counts as functional, cell-based.
A further series relates to HepG2. Kind of series: Antitumor activity against human HepG2 cells assessed as inhibition of cell viability by MTT assay. It counts as functional, cell-based. On the technique in general: Tetrazolium dyes change colour on reduction, which living cells bring about.
For a further series, the system named is HCT-116. Nature of the series: Antitumor activity against human HCT-116 cells assessed as inhibition of cell viability by MTT assay. It counts as functional, cell-based.
Series [2] addresses Epidermal growth factor receptor (Homo sapiens, UniProt P00533). Kind of series: Inhibition of EGFR-TK (unknown origin) relative to control.
For another series, the target named is DNA topoisomerase 2-beta (Homo sapiens, UniProt Q02880). Nature of the series: Inhibition of Topoisomerase II beta (unknown origin) relative to control.
Chain of DNA topoisomerase 2-beta (Q02880 whole entry): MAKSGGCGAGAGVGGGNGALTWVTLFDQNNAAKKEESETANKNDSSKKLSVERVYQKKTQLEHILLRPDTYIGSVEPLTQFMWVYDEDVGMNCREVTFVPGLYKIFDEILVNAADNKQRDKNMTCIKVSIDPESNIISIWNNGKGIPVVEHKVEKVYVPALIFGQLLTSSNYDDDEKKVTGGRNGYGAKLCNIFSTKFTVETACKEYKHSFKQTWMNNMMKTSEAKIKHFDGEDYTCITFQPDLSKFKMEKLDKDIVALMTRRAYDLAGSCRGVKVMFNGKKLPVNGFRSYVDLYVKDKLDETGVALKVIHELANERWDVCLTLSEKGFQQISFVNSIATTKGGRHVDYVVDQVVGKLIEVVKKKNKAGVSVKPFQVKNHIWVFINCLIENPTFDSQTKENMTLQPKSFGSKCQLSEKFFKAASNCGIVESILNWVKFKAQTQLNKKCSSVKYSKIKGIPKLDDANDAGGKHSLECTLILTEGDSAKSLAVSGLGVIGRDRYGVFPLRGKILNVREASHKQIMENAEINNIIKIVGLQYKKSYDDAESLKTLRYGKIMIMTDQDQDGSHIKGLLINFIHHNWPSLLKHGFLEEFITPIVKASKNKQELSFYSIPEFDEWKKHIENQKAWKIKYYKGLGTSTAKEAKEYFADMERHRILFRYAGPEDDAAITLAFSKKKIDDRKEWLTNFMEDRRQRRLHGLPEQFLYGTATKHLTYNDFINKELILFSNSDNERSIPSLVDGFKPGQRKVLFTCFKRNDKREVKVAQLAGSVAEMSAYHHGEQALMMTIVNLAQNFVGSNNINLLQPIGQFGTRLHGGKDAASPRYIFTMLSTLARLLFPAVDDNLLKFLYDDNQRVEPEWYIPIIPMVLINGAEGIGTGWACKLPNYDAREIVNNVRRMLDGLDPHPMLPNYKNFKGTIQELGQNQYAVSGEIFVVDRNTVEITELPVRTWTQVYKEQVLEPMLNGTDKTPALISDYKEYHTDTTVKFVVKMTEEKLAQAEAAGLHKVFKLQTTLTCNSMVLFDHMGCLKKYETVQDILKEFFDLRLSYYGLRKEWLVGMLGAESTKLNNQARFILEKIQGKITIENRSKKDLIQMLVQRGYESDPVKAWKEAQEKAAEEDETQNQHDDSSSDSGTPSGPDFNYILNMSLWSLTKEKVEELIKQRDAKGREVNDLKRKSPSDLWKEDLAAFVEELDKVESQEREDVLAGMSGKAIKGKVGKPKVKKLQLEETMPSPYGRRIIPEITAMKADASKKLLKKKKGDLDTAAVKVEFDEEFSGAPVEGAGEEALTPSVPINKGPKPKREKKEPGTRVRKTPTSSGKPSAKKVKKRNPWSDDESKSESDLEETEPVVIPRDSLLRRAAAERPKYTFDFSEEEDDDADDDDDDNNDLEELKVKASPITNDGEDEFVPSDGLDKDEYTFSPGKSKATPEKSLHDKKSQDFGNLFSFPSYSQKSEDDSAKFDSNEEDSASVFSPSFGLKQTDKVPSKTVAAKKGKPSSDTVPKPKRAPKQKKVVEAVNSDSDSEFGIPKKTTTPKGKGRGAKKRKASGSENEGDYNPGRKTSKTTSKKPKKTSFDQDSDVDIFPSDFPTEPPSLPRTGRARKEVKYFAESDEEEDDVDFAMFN

The record followed here is ChEMBL document CHEMBL4665865, “New series of isoxazole derivatives targeting EGFR-TK: Synthesis, molecular modeling and antitumor evaluation” (Bioorg Med Chem, 2020).

pIC50: −log10 of the molar value.

Chain of Epidermal growth factor receptor (P00533 whole entry): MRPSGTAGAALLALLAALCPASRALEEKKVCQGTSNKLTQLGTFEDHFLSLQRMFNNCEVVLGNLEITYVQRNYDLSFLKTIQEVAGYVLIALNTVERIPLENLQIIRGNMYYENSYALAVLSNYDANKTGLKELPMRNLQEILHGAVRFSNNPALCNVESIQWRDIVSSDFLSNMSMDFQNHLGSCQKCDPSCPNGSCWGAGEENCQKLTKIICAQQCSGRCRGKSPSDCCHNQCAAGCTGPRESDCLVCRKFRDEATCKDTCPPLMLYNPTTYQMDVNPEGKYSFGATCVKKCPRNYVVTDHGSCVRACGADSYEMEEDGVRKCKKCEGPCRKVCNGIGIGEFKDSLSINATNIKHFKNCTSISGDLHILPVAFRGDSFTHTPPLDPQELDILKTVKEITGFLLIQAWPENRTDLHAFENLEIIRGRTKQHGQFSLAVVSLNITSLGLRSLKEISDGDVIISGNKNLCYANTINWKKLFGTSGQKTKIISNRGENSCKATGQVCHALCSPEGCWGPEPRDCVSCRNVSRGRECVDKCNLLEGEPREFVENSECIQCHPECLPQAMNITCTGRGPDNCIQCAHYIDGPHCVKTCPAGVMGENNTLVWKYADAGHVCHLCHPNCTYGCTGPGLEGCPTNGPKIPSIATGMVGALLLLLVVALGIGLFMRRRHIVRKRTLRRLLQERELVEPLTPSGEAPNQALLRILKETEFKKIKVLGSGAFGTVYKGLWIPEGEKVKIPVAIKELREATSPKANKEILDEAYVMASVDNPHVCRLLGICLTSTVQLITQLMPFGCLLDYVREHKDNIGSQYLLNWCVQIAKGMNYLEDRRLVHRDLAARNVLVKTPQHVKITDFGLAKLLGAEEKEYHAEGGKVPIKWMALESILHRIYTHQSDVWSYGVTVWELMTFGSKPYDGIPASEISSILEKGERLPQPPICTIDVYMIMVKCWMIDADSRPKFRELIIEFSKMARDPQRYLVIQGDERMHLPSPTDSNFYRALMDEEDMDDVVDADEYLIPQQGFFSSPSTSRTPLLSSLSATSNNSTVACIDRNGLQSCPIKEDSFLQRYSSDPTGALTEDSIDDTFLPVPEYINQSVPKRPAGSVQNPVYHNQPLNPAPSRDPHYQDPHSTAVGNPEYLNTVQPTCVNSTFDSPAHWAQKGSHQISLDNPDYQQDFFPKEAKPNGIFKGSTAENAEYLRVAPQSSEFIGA

For the molecule `CC(C)(C)c1cc(NC(=O)CCN2CCN(Cc3ccccc3)CC2)no1`, the log partition coefficient (logP) in series [1] turned out to be 3.26. Further, the results for the pIC50 with MCF7, in the series with HepG2 and in the series on HCT-116 were 4.26, 4.08 and 4.07, respectively.
In the same order, the values of `Cc1cc(NC2=NC(=O)/C(=C\c3ccc4ccccc4c3)S2)no1` are 4.16, less than 4.00, less than 4.00 and less than 4.00.
In the same order, the values of `Cc1cc(NC(=O)CN2CCOCC2)no1` are 0.19, 4.09, less than 4.00 and less than 4.00.
In turn, `CCN1CCN(CC(=O)Nc2cc(C)on2)CC1` displayed a log partition coefficient (logP) in series [1] of 0.61. The pIC50 in the series with MCF7 was 4.90; with HepG2 it was 4.71; in the series on HCT-116, 4.75; in series [2], 7.09.
On to `Cc1cc(NC(=O)CCl)no1`, for which the logP in series [1] is 0.55. Moreover, the pIC50 in the series with MCF7 is 4.98; in the series with HepG2, 4.95; in the series with HCT-116 it was 4.88; in series [2] it was 6.97.
The molecule `Cc1ccc(/C=C2/SC(Nc3cc(C(C)(C)C)on3)=NC2=O)cc1` had a log partition coefficient (logP) in series [1] of 5.15. For the same molecule, the pIC50 with MCF7 was 4.40; in the series with HepG2 it was 4.26; with HCT-116, 4.29.
Turning to `CC(C)(C)c1cc(N2C(=O)c3c(Br)c(Br)c(Br)c(Br)c3C2=O)no1`, the pIC50 with MCF7 was 4.19; in the series on HepG2 it was 4.04; in the series on HCT-116, less than 4.00.
`CCN1CCN(CCC(=O)Nc2cc(C)on2)CC1` gave a lipophilicity (logP) in series [1] of 0.51. In addition, the pIC50 was 4.34 in the series on MCF7, 4.28 in the series with HepG2 and 4.16 with HCT-116.
For the molecule `Cc1cc(NC(=O)CCCl)no1`, the pIC50 was 4.31 in the series with MCF7, 4.21 in the series on HepG2 and 4.12 in the series with HCT-116.
In the same order, the values of `CC(C)(C)c1cc(N2C(=O)c3c(Cl)c(Cl)c(Cl)c(Cl)c3C2=O)no1` are 4.05, less than 4.00 and less than 4.00.
As to `Cc1cc(N2C(=O)c3c(Br)c(Br)c(Br)c(Br)c3C2=O)no1`, the negative logarithm of the IC50 (pIC50) with MCF7, in the series with HepG2 and in the series with HCT-116 was less than 4.00 each time.
`CC(C)(C)c1cc(NC(=O)CN2CCOCC2)no1` yielded a log partition coefficient (logP) in series [1] of 1.91. In addition, the pIC50 in the series with MCF7 is 4.71; in the series on HepG2, 4.60; in the series with HCT-116 it was 4.55; in series [2], 6.84.
Regarding `Cc1cc(NC2=NC(=O)/C(=C\c3ccco3)S2)no1`, the figures for the pIC50 in the series with MCF7, in the series with HepG2 and with HCT-116 were 4.52, 4.38 and 4.23, respectively.
The molecule `Cc1cc(NC(=O)CN2CCN(c3ccccc3)CC2)no1` registered a logP in series [1] of 1.93. Further, the negative logarithm of the IC50 (pIC50) was 4.78 with MCF7, 4.46 in the series on HepG2, 4.58 in the series on HCT-116 and 7.19 in series [2].
Turning to `CN1CCN(CCC(=O)Nc2cc(C(C)(C)C)on2)CC1`, the lipophilicity (logP) in series [1] was found to be 1.86. In addition, the pIC50 was 4.13 in the series with MCF7, less than 4.00 in the series on HepG2 and less than 4.00 in the series on HCT-116.
Regarding `CC(C)(C)c1cc(NC2=NC(=O)/C(=C\c3ccc(Br)s3)S2)no1`, the pIC50 in the series with MCF7, in the series with HepG2 and in the series on HCT-116 was less than 4.00 each time.
For `Cc1cc(NC2=NC(=O)/C(=C\c3c(F)cccc3Cl)S2)no1`, the pIC50 with MCF7 was 4.67; with HepG2 it was 4.51; with HCT-116, 4.50.
Consider `CC(C)(C)c1cc(NC(=O)CCN2CCN(c3ccccc3)CC2)no1`, for which the logP in series [1] was found to be 3.56. The pIC50 in the series with MCF7 is 4.64; with HepG2, 4.43; in the series with HCT-116, 4.47.
`Cc1ccc(/C=C2/SC(Nc3cc(C)on3)=NC2=O)cc1`: the logP in series [1] amounted to 3.43. Besides, the negative logarithm of the IC50 (pIC50) in the series with MCF7, in the series with HepG2 and with HCT-116 was less than 4.00 in each case.
For `CC(C)(C)c1cc(NC2=NC(=O)/C(=C\c3ccc(Cl)c(Cl)c3)S2)no1`, the negative logarithm of the IC50 (pIC50) with MCF7 is 4.49; in the series with HepG2, 4.36; in the series with HCT-116 it was 4.20.
Turning to `Cc1cc(N2C(=O)c3c(Cl)c(Cl)c(Cl)c(Cl)c3C2=O)no1`, the pIC50 in the series with MCF7, in the series on HepG2 and with HCT-116 was less than 4.00 in each case.
On to `CN1CCN(CC(=O)Nc2cc(C(C)(C)C)on2)CC1`, for which the log partition coefficient (logP) in series [1] stood at 1.96. The pIC50 in the series on MCF7 was 4.25; in the series with HepG2, 4.19; with HCT-116 it was 4.10.
In the same order, the values of `Cc1cc(NC(=O)CCN2CCN(c3ccccc3)CC2)no1` are 1.84, 4.54, 4.29 and 4.34.
For the molecule `Cc1cc(NC(=O)CCN2CCOCC2)no1`, the results for the negative-log IC50 (pIC50) in the series with MCF7, with HepG2 and in the series on HCT-116 were 4.28, 4.15 and 4.05, respectively.
In the same order, the values of `CC(C)(C)c1cc(NC(=O)CCCl)no1` are 4.22, 4.13 and 4.03.
For the molecule `CCN1CCN(CC(=O)Nc2cc(C(C)(C)C)on2)CC1`, the lipophilicity (logP) in series [1] came out at 2.33. Moreover, the negative-log IC50 (pIC50) was 4.57 with MCF7, 4.41 with HepG2 and 4.42 in the series with HCT-116.
In series [1], `CC(C)(C)c1cc(NC(=O)CN2CCN(c3ccccc3)CC2)no1` had a logP of 3.66. Further, the negative-log IC50 (pIC50) in the series on MCF7 was 4.77; with HepG2, 4.55; with HCT-116 it was 4.61; in series [2] it was 7.18.
In series [1], `CC(C)(C)c1cc(NC2=NC(=O)/C(=C\c3ccc(-c4ccccc4)cc3)S2)no1` came in with a lipophilicity (logP) of 6.5. The negative logarithm of the IC50 (pIC50) in the series on MCF7 is 4.23; in the series on HepG2 it was 4.07; in the series with HCT-116, 4.06.
The molecule `COc1cccc2c1C(=O)c1c(O)c3c(c(O)c1C2=O)C[C@@](O)(C(=O)CO)C[C@@H]3O[C@H]1C[C@H](N)[C@H](O)[C@H](C)O1` [DOXORUBICIN] gave a negative-log IC50 (pIC50) against DNA topoisomerase 2-beta of 6.14.
Molecule `Cc1cc(NC2=NC(=O)/C(=C\c3ccc(Br)cc3)S2)no1` gave a log partition coefficient (logP) in series [1] of 3.79. In addition, the pIC50 was 4.16 with MCF7, 4.06 in the series with HepG2 and 4.02 in the series with HCT-116.
In the same order, the values of `Cc1cc(NC(=O)CN2CCN(Cc3ccccc3)CC2)no1` are 1.63, 4.35, 4.30 and 4.14.
Regarding `CC(C)(C)c1cc(NC2=NC(=O)/C(=C\c3c(F)cccc3Cl)S2)no1`, the pIC50 was 4.15 in the series on MCF7, 4.04 with HepG2 and less than 4.00 in the series with HCT-116.
The molecule `Cc1cc(NC2=NC(=O)CS2)no1` gave a logP in series [1] of 0.24. The pIC50 with MCF7 is 4.83; with HepG2, 4.62; in the series on HCT-116, 4.68; in series [2] it was 7.09.
Molecule `CC(C)(C)c1cc(NC2=NC(=O)/C(=C\c3ccc(Br)cc3)S2)no1` yielded a logP in series [1] of 5.51. The figures for the pIC50 in the series with MCF7, with HepG2 and with HCT-116 were 4.44, 4.32 and 4.19, respectively.
`Cc1cc(NC2=NC(=O)/C(=C\c3ccc(Br)s3)S2)no1`: the negative-log IC50 (pIC50) with MCF7 was 4.62; in the series on HepG2, 4.48; with HCT-116, 4.44.
Turning to `CC(C)(C)c1cc(NC2=NC(=O)/C(=C\c3ccc4ccccc4c3)S2)no1`, in series [1], the logP worked out at 5.89. Also, the values for the negative logarithm of the IC50 (pIC50) with MCF7, in the series on HepG2 and in the series on HCT-116 were 4.17, 4.10 and 4.03, respectively.
Turning to `Cc1cc(NC2=NC(=O)/C(=C\c3ccc(-c4ccccc4)cc3)S2)no1`, in series [1], the logP was found to be 4.78. Further, the pIC50 in the series with MCF7, in the series on HepG2 and with HCT-116 was less than 4.00 throughout.
`CC(C)(C)c1cc(NC2=NC(=O)CS2)no1` showed a lipophilicity (logP) in series [1] of 1.97. Also, the pIC50 is 5.03 in the series on MCF7, 4.74 with HepG2, 4.94 with HCT-116 and 6.82 in series [2].
Consider `Cc1cc(NC2=NC(=O)/C(=C\c3ccc(Cl)c(Cl)c3)S2)no1`, for which the pIC50 in the series on MCF7 was 4.42; in the series on HepG2, 4.34; with HCT-116, 4.39.
In the same order, the values of `CC(C)(C)c1cc(NC2=NC(=O)/C(=C\c3ccco3)S2)no1` are 4.37, 4.17 and 4.18.
Turning to `Cc1cc(NC(=O)CCN2CCN(C)CC2)no1`, in series [1], the log partition coefficient (logP) came to 0.14. For the same molecule, the negative-log IC50 (pIC50) with MCF7 was 4.35; in the series with HepG2 it was 4.25; with HCT-116, 4.12.
Take `CC(C)(C)c1cc(NC(=O)CCN2CCOCC2)no1`: the values for the pIC50 with MCF7, in the series with HepG2 and in the series on HCT-116 were 4.11, 4.03 and less than 4.00, respectively.
`Cc1cc(NC(=O)CCN2CCN(Cc3ccccc3)CC2)no1`: the log partition coefficient (logP) in series [1] turned out to be 1.54. In addition, the pIC50 in the series with MCF7 is 4.04; in the series with HepG2 it was 4.05; in the series on HCT-116, less than 4.00.
In series [1], `CC(C)(C)c1cc(NC(=O)CCl)no1` had a logP of 2.27. Also, the negative-log IC50 (pIC50) with MCF7 is 5.15; in the series with HepG2 it was 5.01; with HCT-116, 5.00; in series [2], 6.91.
For `Cc1cc(NC(=O)CN2CCN(C)CC2)no1`, the lipophilicity (logP) in series [1] is 0.23. The negative-log IC50 (pIC50) is 4.19 in the series with MCF7, 4.20 with HepG2 and 4.05 in the series with HCT-116.
In the same order, the values of `CCN1CCN(CCC(=O)Nc2cc(C(C)(C)C)on2)CC1` are 2.24, 4.21, 4.12 and 4.04.
In the same order, the values of `CC(C)(C)c1cc(NC(=O)CN2CCN(Cc3ccccc3)CC2)no1` are 3.36, 4.32, 4.24 and 4.11.

A word on the logP: it is a log measure of how a compound divides between an organic and an aqueous phase. In general, pIC50 refers to the negative decadic logarithm of the IC50, by convention in mol/L.
